{
  "source": "patent US20230293530A1",
  "about": "“AGENTS FOR SENSITIZING SOLID TUMORS TO TREATMENT” (Yeda Research and Development Co. Ltd., priority 2020, published 2023)",
  "key": {"[1]": {"system": "4T1 breast cancer cells", "assay": "DNA (whole-exome) sequencing analysis of mutational bias", "type": "cell-based, murine", "conditions": "4T1 cells, 300 µM mizoribine, 24 h", "procedure": "B) The purine/pyrimidine ratio is increased upon glucose deprivation in murine breast cancer cells. 4T1 cells were grown in the absence of glucose for 24h (baseline) and 48h and quantified by liquid chromatography-mass spectrometry (LC-MS). Nucleotide levels were measured in µg/ml and corrected for protein concentration. Purine/pyrimidine ratio was calculated by dividing (AMP+GMP) by (UMP+CMP) relative concentrations. C) ASS1 inhibition decreases the purine/pyrimidine ration under glucose deprivation. 4T1 cells were grown in the presence or absence of glucose for 48 h and analysed as in 1B. […] Cells were grown and treated as in 5B. […] 4T1 cells were grown either with or without 300 µM mizoribine for 24 h. Nucleotide levels were measured by LC-MS. […] Each experiment was conducted with biological and technical replicates and repeated at least three times. […] Nucleotide levels were measured as described below by LC-MS. Purine/pyrimidine ratio was calculated by dividing (AMP+GMP+ATP+GTP) concentration by (UMP+CMP+TMP+UTP+CTP+TTP) concentration before and after methotrexate. […]\n4T1 cells treated as outlined above were followed by lysis and DNA isolation using DNeasy blood and tissue kit (Quiagen). […] Purine to pyrimidine (R>Y) and pyrimidine to purine (Y>R) mutations on the sense strand were counted and pooled per condition to achieve sufficient values for statistical analysis. […]"}, "[2]": {"system": "4T1 breast cancer cells", "assay": "Syngeneic mouse breast cancer model, 4T1 cells pre-treated in vitro with mizoribine", "type": "in vivo, BALB/c female mice", "source_text": "(§1) C) ASS1 mRNA expression levels and NDNO scores are associated with non-response to anti-PD1 therapy in non-small cell lung cancer (NSCLC) (7 responders and 14 nonresponders). D) Proteomic-based NDNO scores associate with lower hydrophobicity of peptide repertoire (Wilcoxon ranksum P<0.05) in a (CPTAC3) lung adenocarcinoma cohort. NDNO scores were used to determine the top tertile (red; n=36) and bottom tertile (blue; n=36); Proteomic NDNO scores denote the ratio of NNDO scores of the tumor vs the matched normal sample (Methods). Hydrophobicity scores were determined by R library Peptides using the metric from Janin et al^2, where the hydrophobicity of each sample’s peptide repertoire denotes the mean hydrophobicity of all its peptides (Methods). E) 4T1 breast cancer cells were treated with 300 µM mizoribine for 24 hours and analysed by western for LMP-7 immunoproteasome (Left panel). Quantification of the western is shown on the right panel. […] Tumor size was calliper-measured on the designated days (upper panel) and at sacrifice on day 14 (lower panel, p = 0.0476 using student’s t-test). […] Human IFNγ was measured using ELISA in wells containing cultured CD8+T-cells and PDX explants from two patients (Pat#1, LEP 19 and Pat#2, LEP 20) with metastatic NSCLC on responsive to anti-PD1. […]"}, "[3]": {"system": "LMP-7 immunoproteasome", "assay": "Western blot for LMP-7 immunoproteasome in 4T1 cells", "type": "cell-based, murine", "conditions": "300 µM mizoribine, 24 hours", "source_text": "as §1"}},
  "data": [
    {"smiles": "NC(=O)c1ncn([C@@H]2O[C@H](CO)[C@@H](O)[C@H]2O)c1O", "note": "[Mizoribine, mizoribine]", "values": [
      {"measurement": "mutational bias by DNA sequencing analysis", "setting": "[1]", "value": "pyrimidine mutational bias"},
      {"measurement": "tumor growth", "setting": "[2]; 4T1 cells treated with mizoribine in vitro before injection into mammary pads, mizoribine alone", "value": "restricted tumor growth"},
      {"measurement": "tumor growth response in combination with anti-PD1", "setting": "[2]; 4T1 cells treated with mizoribine in vitro before injection, anti-PD1 intraperitoneal, mice unresponsive to anti-PD1", "value": "more significant response"},
      {"measurement": "immunoproteasome LMP-7 expression", "setting": "[3]", "value": "higher immunoproteasome LMP-7 expression"}
    ]}
  ]
}
